Entries after “also recorded” stand apart in the source; their conditions may differ.
Experiments:
Swiss mice [1] = experiment: Tail suspension test; type: in vivo, mouse; conditions: for immobility time, acute treatment: ip 30 min before, 6, 67 at 3 and 10 mg/kg, 69 at 1, 3, 10, 30 mg/kg, imipramine 30 mg/kg
Procedure: The antidepressant-like activity was screened with the widely used tail suspension test. At 30 min before the behavioral assays, the mice were treated with 6, 67, and 69 at 3 mg/kg and 10 mg/kg ip, with 69 also at 1 mg/kg and 30 mg/kg ip, or were injected with 0.9% saline as control. Imipramine (30 mg/kg ip) was used as the reference drug.
(A) Effects of acute ip treatment with 6 (3, 10 mg/kg, n = 13, 9), 67 (3, 10 mg/kg, n = 6, 10), and 69 (1, 3, 10, 30 mg/kg, n = 8, 7, 8, 6) and imipramine (30 mg/kg, n = 8) in the tail suspension test. […] (B) Effects of acute ip treatment with 6 (3, 10 mg/kg, n = 8, 8), 67 (1, 3, 6 mg/kg; n = 5, 5, 5), and 69 (1, 3, 6 mg/kg, n = 10, 5, 5) on locomotor activity of the mice. […] (C) Effects of 10-day chronic ip treatment with 69 (0.3 mg/kg, daily; n = 10) in the tail suspension test. Data are mean values ± SEM of the immobility time, compared to control mice (n = 8): ∗∗, p < 0.01 (unpaired t-test). […]
quality control sample every seven test samples. The absolute matrix effect was checked by comparing the analyte responses in the standard solutions to the samples spiked in the tissue incubation medium from the control experiment without the analyte, and a deviation of less than ±20% was deemed acceptable.
4.2.10In vitro radioligand binding assay
Rats were humanely killed by decapitation and their brains were removed, washed and rapidly dissected on ice. Homogenisation was performed using a homogeniser (PRO Scientific Inc) at 30,000 rpm for 1 min. For 5-HT1A binding assays, the cortex tissues were homogenised in 30 volumes/weight ice-cold 50 mM Tris–HCl buffer (pH 7.4), and the homogenate was centrifuged at 40,000× g for 15 min at 0 °C to 4 °C. The resulting pellets were resuspended in 30 volumes/weight of the same buffer, and incubated at 37 °C for 20 min. The centrifugation step was repeated twice under the same conditions as described above, and the final pellets were resuspended in 30 volumes/weight 50 mM Tris–HCl buffer (pH 7.4), and stored at –80 […]
For the [3H]-8-OH-DPAT binding assay (the 5-HT1A receptor binding assay), the membranes were thawed and resuspended in 50 mM Tris–HCl (pH 7.4) with 1 mM MnCl2, to a final protein concentration of 0.5 mg/mL. The incubation was carried out at 25 °C for 1 h in a final volume of 1 mL membrane suspension in the presence of the sample assayed and with 0.2 nM [3H]-8-OH-DPAT (170.2 Ci/mmol). Serotonin was used as the positive control. Non-specific binding was determined in parallel incubations in the presence of serotonin (10 μM).
4.2.11 Tail suspension test
The tail suspension test was carried out according to the methodology proposed by Steru and co-workers.22 The mice were individually suspended by the tail from a metal hook (distance

Swiss mice [2] = experiment: Elevated plus maze test; type: in vivo, mouse
Swiss mice [3] = experiment: Locomotor activity test; type: in vivo, mouse
5-HT1A receptor = target: T1, 5-HT1A receptor (Rattus norvegicus, UniProt P19327); experiment: [3H]-8-OH-DPAT radioligand binding assay, rat cortex membranes; conditions: for Ki: [3H]-8-OH-DPAT binding, means ±SEM; for inhibition at 300 µM: read-out: Inhibition at 300 µM
T1 construct: from tissue; host or cells: rat (male Wistar) brain cortex membranes
T1 sequence (P19327 1-422): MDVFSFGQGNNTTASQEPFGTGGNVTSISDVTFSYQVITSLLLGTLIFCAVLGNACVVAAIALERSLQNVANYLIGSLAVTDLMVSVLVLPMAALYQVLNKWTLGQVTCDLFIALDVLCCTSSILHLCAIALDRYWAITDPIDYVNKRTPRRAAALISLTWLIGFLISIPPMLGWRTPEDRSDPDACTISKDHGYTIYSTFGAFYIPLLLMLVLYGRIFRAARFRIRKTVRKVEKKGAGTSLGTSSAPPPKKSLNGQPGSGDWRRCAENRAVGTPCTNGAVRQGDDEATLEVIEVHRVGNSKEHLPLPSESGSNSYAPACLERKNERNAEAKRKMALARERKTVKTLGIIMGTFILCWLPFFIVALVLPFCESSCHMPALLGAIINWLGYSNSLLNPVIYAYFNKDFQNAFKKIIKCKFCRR

SH-SY5Y cells = experiment: MTS cytotoxicity assay; conditions: 24 h, 5 μM and 10 μM
[4] = Thermodynamic solubility in PBS; type: physicochemical; conditions: PBS (pH 7.4), 37 °C, 24 h, hydrochloride salts
[5] = In vitro permeability, rat intestine in diffusion chambers; type: in vitro ADME
[6] = Chemical stability and photoisomerization by proton NMR in D2O; type: physicochemical; conditions: hydrochloride salts, more than 1 year at room temperature protected from sunlight, 1H NMR in D2O
Procedure: Possible chemical instability and photoisomerization of E/Z isomers were also addressed as these are known liabilities of stilbene derivatives.[23] Proton NMRs of 69 (cis derivative), 84 (trans derivative), and 100 (ethyl analogue) in the form of hydrochloride salts were recorded in D2O (Figures S1–S3). […] The samples dissolved in the NMR tubes were then left on the benchtop exposed to natural daylight for 7 days, which could induce photoisomerization. […] Altogether, these studies imply reasonable stability of the compounds.
Figure S2. […] Compound 84 (trans isomer, […]
hydrochloride salt) was dissolved in D2O and the spectra were recorded at time 0 h, 1 h, 24 h and 7 days. Sample was exposed to day light in between the measurement, which could induce photoisomerization and potentially also chemical degradation.
The sample was previously stored at […]

MAO-A/B = experiment: In vitro MAO inhibition in mouse brain homogenate, p-tyramine substrate; type: biochemical
Swiss mice [7] = experiment: Body mass and survival during 10-day treatment; type: in vivo; conditions: 0.3 mg/kg ip daily
Procedure: Figure S9. In vivo effects of chronic treatment on body mass. Body mass variation (Percent weight) (mean ±SEM) in mice throughout the 10-day i.p. treatment with 69 (0.3 mg/kg; n = 10), 100 (0.3 mg/kg; n = 8) and saline (SAL; n = 16). Data are means ±SEM. All animals survived the treatments.

hMAO-A = target: T2, hMAO-A (Homo sapiens, UniProt P21397); experiment: hMAO-A inhibition, HRP–Amplex Red coupled fluorimetric assay; type: biochemical; conditions: supplement csv; RA at 100 micromolar
T2 construct: purchased Sigma Aldrich; host or cells: baculovirus-infected insect cells (BTI-TN-5B1-4)
T2 sequence (P21397 1-527): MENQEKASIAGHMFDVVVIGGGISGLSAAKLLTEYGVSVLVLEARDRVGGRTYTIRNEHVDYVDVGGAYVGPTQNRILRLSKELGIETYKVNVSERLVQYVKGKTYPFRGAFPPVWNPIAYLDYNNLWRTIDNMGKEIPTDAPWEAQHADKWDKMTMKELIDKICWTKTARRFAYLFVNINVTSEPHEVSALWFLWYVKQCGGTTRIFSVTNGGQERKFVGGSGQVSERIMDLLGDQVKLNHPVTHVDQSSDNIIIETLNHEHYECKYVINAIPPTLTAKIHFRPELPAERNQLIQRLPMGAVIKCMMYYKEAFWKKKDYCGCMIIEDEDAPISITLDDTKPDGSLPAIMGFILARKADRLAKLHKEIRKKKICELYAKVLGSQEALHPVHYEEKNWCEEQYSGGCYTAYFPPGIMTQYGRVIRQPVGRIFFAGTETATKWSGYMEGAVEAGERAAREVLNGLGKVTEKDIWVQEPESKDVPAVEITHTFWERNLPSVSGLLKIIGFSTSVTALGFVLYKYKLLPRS

Swiss mice [8] = experiment: Haloperidol-induced catalepsy test; type: in vivo, mouse; conditions: 5 mg/kg, reference drug

Row | Compound | Ki (5-HT1A receptor) | inhibition at 300 µM (5-HT1A receptor) | thermodynamic solubility [4] | immobility time, acute treatment (Swiss mice [1]) | Open arm entries (%) (Swiss mice [2]; acute ip, 3 mg/kg) | Time in centre (%) (Swiss mice [2]; acute ip, 3 mg/kg) | Time in open arms (%) (Swiss mice [2]; acute ip, 3 mg/kg) | Total arm entries (Swiss mice [2]; acute ip, 3 mg/kg) | cytotoxic effects (SH-SY5Y cells) | Open arm entries (%) (Swiss mice [2]; acute ip, 6 mg/kg) | Time in centre (%) (Swiss mice [2]; acute ip, 6 mg/kg) | Time in open arms (%) (Swiss mice [2]; acute ip, 6 mg/kg) | Total arm entries (Swiss mice [2]; acute ip, 6 mg/kg) | chemical stability on storage [6] | further results
1 | C#CCN1CCC(/C=C\c2cccc(F)c2)CC1 [Compound 69, (Z)-4-(3-Fluorostyryl)-1-(prop-2-yn-1-yl)piperidine] | 1700 ± 120 nM | 92% | ≥ 8.6 g/250 mL | did not decrease the immobility time | 28.0 ±2.9% | 38.0 ±2.9% | 19.8 ±1.6% | 22.9 ±1.6 | no significant cytotoxic effects | 13.3 ±1.2% | 41.4 ±4.1% | 7.1 ±1.6% | 20.4 ±1.3 | no signs of chemical instability | immobility time, chronic treatment (Swiss mice [1]; 10-day, 0.3 mg/kg ip daily): significantly decreased the immobility time; Papp A→B at 50 µM ([5]; male, Sprague-Dawley, pH 7.4, rat intestine, 50 μM donor, mean ± SEM, read-out: apparent permeability coefficient, absorptive direction): 10.8 ± 1.3 ×10⁻⁶ cm/s; Papp B→A at 50 µM ([5]; male, Sprague-Dawley, pH 7.4, rat intestine, 50 μM donor, mean ± SEM, read-out: apparent permeability coefficient, eliminatory direction): 35.4 ± 9.9 ×10⁻⁶ cm/s; permeability classification ([5]; rat intestine in vitro): intermediate/moderate permeability; Time in centre (%) (Swiss mice [2]; 10-day treatment, 0.3 mg/kg): 28.8 ±4.5%; Time in open arms (%) (Swiss mice [2]; 10-day treatment, 0.3 mg/kg): 11.8 ±3.7%; effects in the elevated plus maze, chronic low dose (Swiss mice [2]; 10-day, 0.3 mg/kg ip daily): No significant effects; Open arm entries (%) (Swiss mice [2]; acute ip, 1 mg/kg): 15.9 ±5.1%; Time in centre (%) (Swiss mice [2]; acute ip, 1 mg/kg): 36.4 ±7.7%; Total arm entries (Swiss mice [2]; acute ip, 1 mg/kg): 17.4 ±2.5; locomotor activity (Swiss mice [3]; 10-day treatment, 0.3 mg/kg, 5-min session): 598.3 ±14.7 counts; effects in the locomotor activity test, chronic low dose (Swiss mice [3]; 10-day, 0.3 mg/kg ip daily): No significant effects; locomotion (Swiss mice [3]; acute 3 mg/kg ip): not altered; residual activity, p-tyramine (0.5 mM), in vitro (MAO-A/B; 50 μM compound, homogenate from nontreated mice): 31.3 ± 0.2%; body mass variations versus control mice (Swiss mice [7]): No significant differences
2 | CN1[C@@H]2C[C@@H](OC(=O)[C@H](CO)c3ccccc3)C[C@H]1[C@@H]1O[C@@H]12 [Scopolamine, reference compound] |  |  |  |  |  |  |  |  |  |  |  |  |  |  | latency time to descend from the bar (Swiss mice [8]): significantly decreased the latency time
3 | NCCc1ccc(O)cc1 [p-Tyramine, reference compound] |  |  |  |  |  |  |  |  |  |  |  |  |  |  | K0.5 (MAO-A/B; substrate of MAO A/B, control mouse brain homogenates): 0.071 ± 0.032 mM

The next lines start with results.

Row | Ki (5-HT1A receptor) | inhibition at 300 µM (5-HT1A receptor) | thermodynamic solubility [4] | Compound | immobility time, acute treatment (Swiss mice [1]) | Open arm entries (%) (Swiss mice [2]; acute ip, 3 mg/kg) | Time in centre (%) (Swiss mice [2]; acute ip, 3 mg/kg) | Time in open arms (%) (Swiss mice [2]; acute ip, 3 mg/kg) | Total arm entries (Swiss mice [2]; acute ip, 3 mg/kg) | cytotoxic effects (SH-SY5Y cells) | Open arm entries (%) (Swiss mice [2]; acute ip, 6 mg/kg) | Time in centre (%) (Swiss mice [2]; acute ip, 6 mg/kg) | Time in open arms (%) (Swiss mice [2]; acute ip, 6 mg/kg) | Total arm entries (Swiss mice [2]; acute ip, 6 mg/kg) | chemical stability on storage [6] | further results
4 | 2400 ± 600 nM | 88% | at least 17.6 g/250 mL | C#CCN1CCC(/C=C\c2ccc(F)cc2)CC1 [Compound 6, (Z)-4-(4-Fluorostyryl)-1-(prop-2-yn-1-yl)piperidine] | significantly reduced | 10.8 ±2.6% | 43.5 ±2.8% | 9.1 ±1.9% | 22.0 ±1.5 | no significant cytotoxic effects |  |  |  |  |  | increase in the proportion of open-arm entries (Swiss mice [2]; 10 mg/kg ip, vs 0.9% saline): 2.0 fold; Open arm entries (%) (Swiss mice [2]; acute ip, 10 mg/kg): 27.5 ±3.2%; Time in open arms (%) (Swiss mice [2]; acute ip, 10 mg/kg): 8.4 ±2.7%; spontaneous locomotor activity (Swiss mice [3]; acute 10 mg/kg ip): significantly decreased
5 | 700 ± 100 nM | 96% | ≥ 10.5 g/250 mL | C#CCN1CCC(/C=C\c2ccccc2)CC1 [Compound 67, (Z)-1-(Prop-2-yn-1-yl)-4-styrylpiperidine] | did not decrease the immobility time | 15.0 ±2.3% | 39.8 ±1.7% | 11.9 ±2.3% | 20.6 ±2.4 | no significant cytotoxic effects | 15.6 ±3.4% | 53.1 ±5.7% | 5.4 ±1.0% | 15.4 ±0.8 |  | 
6 |  | 48% |  | C#CCN1CCC(/C=C/c2ccc(C(F)(F)F)cc2)CC1 [Compound 84, (E)-1-(Prop-2-yn-1-yl)-4-(4-(trifluoromethyl)styryl)piperidine] |  |  |  |  |  | no significant cytotoxic effects |  |  |  |  | only smaller amounts of impurities were detected; also recorded: partial degradation | IC50(MAO-A) class (hMAO-A): na (na-not_active(RA_at_100micromolar>50%))
